Each structure is given as a SMILES string.

One assay relates to A549. Description: MTT cell growth inhibition assay, A549 lung carcinoma cells. The class given is cell-based, human. As to conditions: 72 hours exposure. On the procedure: (§1) The antiproliferative activity of FMdC in combination with cisplatin on growth inhibition in human carcinoma cell lines in vitro was studied using the following method.
(§2) Two lung carcinoma cell lines, A549 and Calu-6, (available through ATCC, Rockville, Md.), were cultured in F12K medium with 10% fetal bovine serum at an atmosphere of 5% CO2 at 37° C. All cells were exposed to both FMdC and cisplatin in different concentrations for 72 hours.
(§3) Cell growth inhibition was determined by measuring the metabolic activity of cells using the MTT (tetrazolium salt) assay. For the MTT assays, the cells were seeded at 4×10^3 in 100 μL per well in a 96-well microtiter culture plate. The concentration of FMdC ranged from 10 nM to 100 μM and the concentration of cisplatin ranged from 1 μM to 10 mM. At the end of the treatment, tetrazolium salt (MTT) was added to each well and then solubilized. The microtiter plate was then measured (O.D. at 570 nm) using an ELISA plate reader. The 50% inhibitory concentrations (IC50) values of FMdC and cisplatin as single agents and in combination were determined.

In the next assay the test system is Calu-6. Nature of the assay: MTT cell growth inhibition assay, Calu-6 lung carcinoma cells. In kind it is cell-based, human. As to conditions: Calu-6 cells, 72 hours exposure. On the procedure:
as §1, §2, §3

Assay [1] concerns A549 Human NSCLC Xenografts. Nature of the assay: Anti-tumor activity, A549 human NSCLC xenografts, multiple dose. In kind it is in vivo, nu/nu mice. As to conditions: i.p.; for TVQT (days) (M ± SE), tumor volume quadrupling time: FMdC or gemcitabine 20 mg/kg Day 0, 3, 7, 10, CDDP 4 mg/kg Day 0, 7, FMdC 15 minutes prior to cisplatin; for TGD (days) (M ± SE), tumor growth delay: FMdC or gemcitabine 20 mg/kg Day 0, 3, 7, 10, CDDP 4 mg/kg Day 0, 7, difference of TVQT vs untreated control. An excerpt:
This example evaluated the effect of FMdC in combination with cisplatin in a human non-small-cell lung cancer (NSCLC) xenograft model. This combination was compared to the administration of the combination of gemcitabine with cisplatin. Gemcitabine (Gemzar®, Eli Lilly and Company) is 2′-deoxy-2′,2′-difluorocytidine (dFdC).
Xenogeneic NSCLC tumors of A549 cells (available through ATCC, Rockville, Md.) were induced by intradermal injection of approximately 5×10^6 cells into the flanks of female nu/nu mice. Two to three weeks after tumor cell inoculation, when the tumors were approximately 10 mm^3 in size, treatment with FMdC, gemcitabine or cisplatin solution was administered intraperitoneally (i.p.) in a volume of approximately 10 μL per gram of mouse body weight. Six to eight animals were used per treatment group.
The injectable solutions were prepared as follows: Lyophilized FMdC was reconstituted with sterile saline to a concentration of 2 or 20 mg/mL; gemcitabine was reconstituted with sterile saline to a concentration of 2 mg/mL; and cisplatin solution was prepared from lyophilized cisplatin (Cisplatin for Injection, David Bull Laboratories) by reconstitution with sterile water to a concentration of 0.4 or 0.6 mg/mL.
For this multiple treatment regimens, FMdC or gemcitabine was administered twice a week for two weeks at 20 mg/kg and cisplatin was administered once a week for two weeks at 4 mg/kg. FMdC was administered by injection 15 minutes prior to the administration of cisplatin.
(§4) Tumor growth and animal body weight were determined twice weekly for up to 30 days. Tumor volume quadrupling time (TVQT) was used as the study endpoint. Tumor growth delay (TGD) is the difference between TVQTs of a treated group and untreated control.

For assay [2], the system named is A549 Human NSCLC Xenografts. Description: Influence of time interval between FMdC and CDDP, A549 human NSCLC xenografts, single dose. In kind it is in vivo, nu/nu mice. As to conditions: single agent, single dose i.p.; FMdC 200 mg/kg, CDDP 6 mg/kg.
Source text: (§5) This example evaluated the effect of FMdC in combination with cisplatin in two human non-small-cell lung cancer (NSCLC) xenograft models. This example examined the influence of the time interval between FMdC and cisplatin administration.
(§6) Xenogeneic NSCLC tumors of A549 cells or Calu-6 cells (available through ATCC, Rockville, Md.) were induced by intradermal injection of approximately 5×10^6 cells into the flanks of female nu/nu mice. Two to three weeks after tumor cell inoculation, when the tumors were approximately 10 mm^3 in size, treatment with FMdC and/or cisplatin solution was administered intraperitoneally (i.p.) in a volume of approximately 10 μL per gram of mouse body weight. Six to eight animals were used per treatment group.
(§7) The injectable solutions were prepared as follows: Lyophilized FMdC was reconstituted with sterile saline to a concentration of 2 or 20 mg/mL; […] with sterile saline to a concentration of 2 mg/mL; and cisplatin solution was prepared from lyophilized cisplatin (Cisplatin for Injection, David Bull Laboratories) by reconstitution with sterile water to a concentration of 0.4 or 0.6 mg/mL.
as §4

Assay [3] has as its system Calu-6 Human NSCLC Xenografts. Description: Influence of time interval between FMdC and CDDP, Calu-6 human NSCLC xenografts, single dose. As to conditions: single agent, single dose i.p.; FMdC 200 mg/kg, CDDP 6 mg/kg. The class given is in vivo, nu/nu mice.
Source text: as §5, §6, §7, §4

Turning to `N.N.[Cl][Pt][Cl]` [CDDP, cis-diamminedichloroplatinum], the “Cell growth inhibition / cell death (MTT assay)” value with A549 and with Calu-6 was “not effective” in each case. Besides, the “TVQT (days) (M ± SE), tumor volume quadrupling time” value in assay [1] came out at 18.1 ± 0.9 days. Moreover, the “TGD (days) (M ± SE), tumor growth delay” value in assay [1] is reported as 1.3 ± 1.5 days. Also, the “TGD (days) (M ± SE)” value was found to be 1.9 ± 2.0 days in assay [2] and 8.8 ± 1.6 days in assay [3]. Besides, the “TVQT (days) (M ± SE)” value amounted to 16.1 ± 1.8 days in assay [2] and 18.1 ± 1.5 days in assay [3].

`Nc1ccn([C@@H]2O[C@H](CO)[C@@H](O)/C2=C\F)c(=O)n1` [FMdC, (E)-2′-deoxy-2′-(fluoromethylene)cytidine]: the “Cell growth inhibition / cell death (MTT assay)” value in the assay on A549 is reported as “not effective”. Further, the “Cell growth inhibition / cell death (MTT assay)” value with Calu-6 is recorded as “not effective”. Besides, in assay [1], the “TVQT (days) (M ± SE), tumor volume quadrupling time” value turned out to be 19.8 ± 1.1 days and the “TGD (days) (M ± SE), tumor growth delay” value is on record as 3.0 ± 1.6 days. In assay [2], the “TGD (days) (M ± SE)” value came to 3.6 ± 1.3 days and the “TVQT (days) (M ± SE)” value stood at 17.8 ± 1.0 days. In addition, in assay [3], the “TGD (days) (M ± SE)” value was found to be 2.0 ± 0.6 days and the “TVQT (days) (M ± SE)” value amounted to 11.3 ± 0.4 days.

For the compound `Nc1ccn([C@@H]2O[C@H](CO)[C@@H](O)C2(F)F)c(=O)n1` [Gemcitabine, 2′-deoxy-2′,2′-difluorocytidine], in assay [1], the “TVQT (days) (M ± SE), tumor volume quadrupling time” value turned out to be 18.7 ± 1.0 days and the “TGD (days) (M ± SE), tumor growth delay” value was determined as 1.9 ± 1.6 days.
